Where two headings read alike, the source gives them in different places.
What was measured:
PI3Kβ = molecular target: T1, PI3Kβ (Homo sapiens, UniProt P42338); experiment: Enzyme binding assay (KINOMEscan, DiscoveRx); conditions: PIK3Cβ_h, read-out: Kd PIK3Cβ_h
T1 construct: purchased DiscoveRx Corporation, San Diego (contract service, KINOMEscan)
Method in brief: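 Reported Kd (nM) reflects inhibitor binding to the kinase, as measured by KINOMEscan technology.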

PI3Kδ = molecular target: T2, PI3Kδ (Homo sapiens, UniProt O00329); experiment: Enzyme binding assay (KINOMEscan, DiscoveRx); conditions: PIK3Cδ_h
T2 construct: purchased DiscoveRx Corporation, San Diego (contract service, KINOMEscan)
T2 sequence (O00329 1-1044): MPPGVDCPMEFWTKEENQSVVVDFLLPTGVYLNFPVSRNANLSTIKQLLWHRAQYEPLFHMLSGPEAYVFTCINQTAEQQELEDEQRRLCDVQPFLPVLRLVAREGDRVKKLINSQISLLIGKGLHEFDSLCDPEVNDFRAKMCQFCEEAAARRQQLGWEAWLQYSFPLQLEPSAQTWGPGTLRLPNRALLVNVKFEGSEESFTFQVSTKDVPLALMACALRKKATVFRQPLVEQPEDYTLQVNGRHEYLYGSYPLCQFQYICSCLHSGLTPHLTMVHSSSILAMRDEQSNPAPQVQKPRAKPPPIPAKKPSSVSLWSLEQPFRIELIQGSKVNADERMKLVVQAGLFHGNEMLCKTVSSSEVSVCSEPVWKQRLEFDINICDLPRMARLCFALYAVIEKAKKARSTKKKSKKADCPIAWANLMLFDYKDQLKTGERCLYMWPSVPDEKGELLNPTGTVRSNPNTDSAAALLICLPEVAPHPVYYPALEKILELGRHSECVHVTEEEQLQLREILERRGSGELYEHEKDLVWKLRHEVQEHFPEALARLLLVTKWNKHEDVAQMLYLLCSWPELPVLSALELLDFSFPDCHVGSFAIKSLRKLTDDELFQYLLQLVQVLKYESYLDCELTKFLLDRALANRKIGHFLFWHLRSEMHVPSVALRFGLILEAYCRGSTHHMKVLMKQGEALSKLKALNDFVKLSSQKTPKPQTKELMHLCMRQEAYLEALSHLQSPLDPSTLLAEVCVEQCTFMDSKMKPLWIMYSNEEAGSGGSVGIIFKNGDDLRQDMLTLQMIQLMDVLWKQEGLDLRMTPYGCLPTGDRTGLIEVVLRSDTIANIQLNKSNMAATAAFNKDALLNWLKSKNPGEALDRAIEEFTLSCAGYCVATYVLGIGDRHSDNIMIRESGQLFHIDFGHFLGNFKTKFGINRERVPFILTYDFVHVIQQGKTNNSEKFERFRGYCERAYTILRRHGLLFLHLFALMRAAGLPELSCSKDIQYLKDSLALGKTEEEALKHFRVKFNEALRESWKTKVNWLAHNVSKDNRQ
Method in brief: (§1)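 Kinase binding measured via KINOMEscan, reported as affinity.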

kinase enzymes [1] = molecular target: T3, kinase enzymes (Homo sapiens, UniProt P42336); experiment: Enzyme binding assay (KINOMEscan, DiscoveRx), further kinases of Table A; conditions: PIK3Cα_h
T3 construct: purchased DiscoveRx Corporation, San Diego (contract service, KINOMEscan)
T3 sequence (P42336 whole entry): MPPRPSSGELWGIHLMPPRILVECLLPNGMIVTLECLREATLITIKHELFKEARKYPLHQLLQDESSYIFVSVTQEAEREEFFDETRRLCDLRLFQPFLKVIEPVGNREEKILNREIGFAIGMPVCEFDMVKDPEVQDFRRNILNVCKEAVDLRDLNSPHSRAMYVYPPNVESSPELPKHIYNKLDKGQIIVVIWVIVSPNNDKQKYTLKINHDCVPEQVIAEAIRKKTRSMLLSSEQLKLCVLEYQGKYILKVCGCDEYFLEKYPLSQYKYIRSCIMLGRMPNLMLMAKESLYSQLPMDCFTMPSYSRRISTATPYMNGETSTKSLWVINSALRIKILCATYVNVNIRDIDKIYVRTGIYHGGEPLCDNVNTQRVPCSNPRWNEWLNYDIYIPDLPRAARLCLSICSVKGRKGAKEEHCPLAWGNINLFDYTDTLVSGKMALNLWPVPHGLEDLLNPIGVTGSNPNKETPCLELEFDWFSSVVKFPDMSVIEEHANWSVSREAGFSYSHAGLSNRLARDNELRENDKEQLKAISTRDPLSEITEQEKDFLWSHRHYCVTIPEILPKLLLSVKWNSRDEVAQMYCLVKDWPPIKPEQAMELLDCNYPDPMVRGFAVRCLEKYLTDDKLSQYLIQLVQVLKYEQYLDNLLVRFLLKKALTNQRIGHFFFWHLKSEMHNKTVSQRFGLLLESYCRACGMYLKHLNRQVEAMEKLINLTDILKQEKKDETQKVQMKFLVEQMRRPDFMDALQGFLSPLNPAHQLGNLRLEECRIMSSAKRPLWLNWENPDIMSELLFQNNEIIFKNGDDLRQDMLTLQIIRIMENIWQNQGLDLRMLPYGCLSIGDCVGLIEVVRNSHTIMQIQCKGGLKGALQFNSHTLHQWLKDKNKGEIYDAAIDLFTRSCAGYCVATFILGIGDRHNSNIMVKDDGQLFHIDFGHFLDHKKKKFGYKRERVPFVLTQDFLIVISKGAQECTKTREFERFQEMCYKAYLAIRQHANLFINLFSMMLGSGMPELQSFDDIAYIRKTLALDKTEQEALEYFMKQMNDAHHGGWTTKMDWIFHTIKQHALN
Method in brief: as §1

kinase enzymes [2] = molecular target: T4, kinase enzymes (Homo sapiens, UniProt P42345); experiment: as above; conditions: MTOR_h
T4 construct: purchased DiscoveRx Corporation, San Diego (contract service, KINOMEscan)
Method in brief: as §1

kinase enzymes [3] = molecular target: T5, kinase enzymes (Homo sapiens, UniProt P48736); experiment: as above; conditions: PIK3Cγ_h
T5 construct: purchased DiscoveRx Corporation, San Diego (contract service, KINOMEscan)
T5 sequence (P48736 whole entry): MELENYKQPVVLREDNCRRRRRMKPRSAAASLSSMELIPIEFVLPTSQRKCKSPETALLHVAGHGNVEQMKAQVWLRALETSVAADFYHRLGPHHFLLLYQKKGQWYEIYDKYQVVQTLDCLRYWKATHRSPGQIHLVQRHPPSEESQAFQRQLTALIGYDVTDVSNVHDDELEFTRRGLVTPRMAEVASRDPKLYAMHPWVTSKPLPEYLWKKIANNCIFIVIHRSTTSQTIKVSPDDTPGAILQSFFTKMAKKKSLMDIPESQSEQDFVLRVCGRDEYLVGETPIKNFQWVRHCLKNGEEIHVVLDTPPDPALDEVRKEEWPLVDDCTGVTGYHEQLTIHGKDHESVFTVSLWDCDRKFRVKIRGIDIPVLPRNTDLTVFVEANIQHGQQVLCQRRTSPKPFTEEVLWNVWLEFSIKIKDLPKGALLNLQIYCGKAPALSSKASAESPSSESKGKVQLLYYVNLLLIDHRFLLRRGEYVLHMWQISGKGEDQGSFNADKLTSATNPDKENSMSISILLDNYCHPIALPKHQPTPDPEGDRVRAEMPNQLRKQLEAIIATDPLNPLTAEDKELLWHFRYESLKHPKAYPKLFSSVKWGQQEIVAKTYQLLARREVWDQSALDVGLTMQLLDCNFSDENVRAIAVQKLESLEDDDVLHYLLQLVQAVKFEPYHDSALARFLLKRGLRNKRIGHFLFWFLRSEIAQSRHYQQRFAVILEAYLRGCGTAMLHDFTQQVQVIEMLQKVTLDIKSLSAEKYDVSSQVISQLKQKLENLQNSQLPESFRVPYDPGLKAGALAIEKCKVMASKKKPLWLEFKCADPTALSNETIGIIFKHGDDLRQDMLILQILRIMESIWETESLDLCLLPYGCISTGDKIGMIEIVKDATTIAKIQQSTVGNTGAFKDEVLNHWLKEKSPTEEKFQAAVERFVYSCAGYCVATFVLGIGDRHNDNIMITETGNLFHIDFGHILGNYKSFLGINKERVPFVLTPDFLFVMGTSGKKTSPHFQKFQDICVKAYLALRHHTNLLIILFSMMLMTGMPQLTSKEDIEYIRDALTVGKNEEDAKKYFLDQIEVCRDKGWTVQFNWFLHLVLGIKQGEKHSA
Method in brief: as §1

[4] = test system: Akt phosphorylated at Ser473 in PC-3 cells; experiment: Cellular assay: phosphorylation of Akt at Ser473 in PC-3 cells (MSD ELISA); type: cell-based; conditions: PC-3 cells, 60 min compound incubation, MSD ELISA, read-out: IC50 pAkt_S473
Method in brief: (§2)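 Compound treatment of PC-3 cells lasted 60 min at 37° C (0.3% DMSO). Lysates were then applied to plates carrying capture antibodies for the relevant phospho-site, and bound Akt was detected with an electrochemiluminescent anti-total Akt antibody; IC50s derive from five-point curves.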

[5] = test system: Akt phosphorylated at Thr308 in PC-3 cells; experiment: Cellular assay: phosphorylation of Akt at Thr308 in PC-3 cells (MSD ELISA); type: cell-based; conditions: PC-3 cells, 60 min compound incubation, MSD ELISA, read-out: IC50 pAkt_Thr308
Method in brief: as §2

T1 sequence (P42338 whole entry): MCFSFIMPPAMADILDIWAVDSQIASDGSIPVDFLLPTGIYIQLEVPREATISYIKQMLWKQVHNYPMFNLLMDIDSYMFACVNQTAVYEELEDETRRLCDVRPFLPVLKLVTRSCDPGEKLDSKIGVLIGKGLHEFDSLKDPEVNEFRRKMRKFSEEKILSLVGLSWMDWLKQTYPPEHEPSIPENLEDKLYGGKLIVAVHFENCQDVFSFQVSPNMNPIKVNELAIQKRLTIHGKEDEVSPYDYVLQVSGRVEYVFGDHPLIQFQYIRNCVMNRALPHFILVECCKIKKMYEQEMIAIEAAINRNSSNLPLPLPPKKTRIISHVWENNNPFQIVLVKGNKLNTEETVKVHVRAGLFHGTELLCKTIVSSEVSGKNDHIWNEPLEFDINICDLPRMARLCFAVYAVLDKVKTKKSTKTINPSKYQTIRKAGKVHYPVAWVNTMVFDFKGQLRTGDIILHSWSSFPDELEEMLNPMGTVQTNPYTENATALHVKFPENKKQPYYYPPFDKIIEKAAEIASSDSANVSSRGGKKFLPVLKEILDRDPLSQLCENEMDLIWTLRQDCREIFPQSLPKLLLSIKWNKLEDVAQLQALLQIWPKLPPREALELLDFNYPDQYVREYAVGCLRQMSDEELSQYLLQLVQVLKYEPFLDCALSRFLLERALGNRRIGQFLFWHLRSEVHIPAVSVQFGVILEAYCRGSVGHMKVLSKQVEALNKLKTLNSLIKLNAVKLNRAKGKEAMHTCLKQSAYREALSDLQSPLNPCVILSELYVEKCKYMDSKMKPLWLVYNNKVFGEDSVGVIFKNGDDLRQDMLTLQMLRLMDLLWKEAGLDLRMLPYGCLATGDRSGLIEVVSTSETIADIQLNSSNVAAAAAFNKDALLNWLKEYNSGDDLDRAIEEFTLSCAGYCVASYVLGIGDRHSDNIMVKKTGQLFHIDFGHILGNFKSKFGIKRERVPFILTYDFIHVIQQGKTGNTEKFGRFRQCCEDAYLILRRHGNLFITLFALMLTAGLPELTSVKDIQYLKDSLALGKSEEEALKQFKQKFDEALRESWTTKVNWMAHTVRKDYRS

Kd (PI3Kβ)	Kd (PI3Kδ)	Kd (kinase enzymes [1])	Kd (kinase enzymes [2])	Kd (kinase enzymes [3])	IC50 [4]	IC50 [5]	IC50 ([4]; Homo sapiens, PC-3, 1 h)	IC50 ([5]; Homo sapiens, PC-3, 1 h)	Structure (SMILES)
3 nM	186 nM	1100 nM	> 30200 nM	11700 nM	54 nM	39 nM			CC(Nc1ccc(F)c(F)c1)c1cc(C(=O)N2CCC[C@H](O)C2)cc2ncc(N3CCOCC3)nc12 (single isomer, unassigned) [Compound 302b]
10 nM	1230 nM	4470 nM	> 30200 nM	21400 nM		234 nM	> 513 nM		CCN1CCN(C(=O)c2cc(C(C)Oc3cccc(F)c3)c3nc(N4CCOCC4)cnc3c2)CC1 (single isomer, unassigned) [Compound 91]
1660 nM	21900 nM	10200 nM	23400 nM	> 30200 nM	> 513 nM	> 513 nM			C[C@@H]1CN(c2cnc3cc(C(=O)N(C)C)cc(C4CCCN4c4cccc(F)c4)c3n2)CCO1 (single isomer, unassigned) [Compound 29]
14 nM	9330 nM	> 30200 nM	> 30200 nM	> 30200 nM	468 nM	339 nM			CC(Nc1cc(F)c(F)c(F)c1)c1cc(C(=O)N(C)C2CCNC2)cc2ncc(N3CCOCC3)nc12 (single isomer, unassigned) [Compound 296b]
0.4 nM	120 nM	339 nM	> 30200 nM	2290 nM	23 nM	20 nM			CC(Nc1cc(F)cc(F)c1)c1cc(C(=O)N(C)C)cc2ncc(C3=CCOCC3)nc12 (single isomer, unassigned) [Compound 158]
2 nM	204 nM	2290 nM	> 30200 nM	20000 nM			158 nM	123 nM	CC(Oc1cc(F)ccc1NCCN)c1cc(C(=O)N(C)C)cc2ncc(N3CCOCC3)nc12 (centres unmarked) [Compound 79]
5 nM	813 nM	2820 nM	> 30200 nM	15800 nM			182 nM	91 nM	CC(Nc1cc(F)cc(F)c1)c1cc(CN2CCO[C@H](CO)C2)cc2ncc(N3CCOCC3)nc12 (single isomer, unassigned) [Compound 196]
603 nM	15500 nM	6170 nM	> 30200 nM	4070 nM	> 513 nM	347 nM			CC(C)NCCNC(=O)c1cc(C(C)Nc2cccc(F)c2)c2nc(N3CCOCC3)cnc2c1 (single isomer, unassigned) [Compound 228]
1 nM	347 nM	933 nM	16600 nM	6170 nM			32 nM	20 nM	Cc1c(F)cccc1CNc1cc(C(=O)N(C)CCNC(C)C)cc2ncc(N3CCOCC3)nc12 [Compound 385]
151 nM	3470 nM	6170 nM	> 30200 nM	7410 nM	> 513 nM	> 513 nM			CC(Nc1ccc(F)c(F)c1)c1cc(C(=O)NCCN(C)C)cc2ncc(N3CCOCC3)nc12 (single isomer, unassigned) [Compound 281b]
603 nM	3020 nM	1700 nM	1660 nM	3160 nM	> 513 nM	> 513 nM			CC(Oc1cccc(F)c1)c1cc(C(=O)O)cc2ncc(N3CCOCC3)nc12 (single isomer, unassigned) [Compound 257c]
6 nM	891 nM	5250 nM	7940 nM	16200 nM	372 nM	105 nM			COC1CN(Cc2cc(C(C)Nc3cc(F)cc(F)c3)c3nc(N4CCOCC4)cnc3c2)CC1OC (single isomer, unassigned) [Compound 207]
26 nM	1860 nM	5130 nM	20000 nM	28200 nM	> 513 nM	> 513 nM			CC(C)NCCNC(=O)c1cc(C(C)Nc2ccc(Cl)c(F)c2)c2nc(N3CCOCC3)cnc2c1 (single isomer, unassigned) [Compound 312b]
832 nM	11700 nM	7240 nM	13500 nM	9550 nM	> 513 nM	> 513 nM			CC(Oc1cccc(F)c1)c1cc(CO)cc2ncc(N3CCOCC3)nc12 (single isomer, unassigned) [Compound 89]
52 nM	4680 nM	9770 nM	> 30200 nM	11500 nM			> 513 nM	355 nM	COC(=O)c1cc(C(C)Nc2cc(F)cc(Cl)c2)c2nc(N3CCOCC3)cnc2c1 (centres unmarked) [Compound 99]
60 nM	5250 nM	13200 nM	> 30200 nM	19500 nM	> 513 nM	> 513 nM			CC(Nc1ccc(F)c(F)c1)c1cc(C(=O)NCCN(C)C)cc2ncc(N3CCOCC3)nc12 (centres unmarked) [Compound 299b]
141 nM	3470 nM	7410 nM	> 30200 nM	3800 nM	> 513 nM	> 513 nM			CNCCNC(=O)c1cc(C(C)Nc2cc(F)cc(F)c2)c2nc(N3CCOCC3)cnc2c1 (single isomer, unassigned) [Compound 406b]
1 nM	204 nM	5250 nM	> 30200 nM	10200 nM			52 nM	35 nM	CN[C@H]1CCN(C(=O)c2cc(C(C)Nc3ccc(F)c(F)c3)c3nc(N4CCOCC4)cnc3c2)C1 (single isomer, unassigned) [Compound 365a]
1890 nM	16900 nM	26000 nM	> 30200 nM	> 30200 nM	> 513 nM	> 513 nM			CC(Oc1cc(F)cc(F)c1)c1cc(C(=O)N(C)C)cc2ncc(N3CCOCC3)nc12 (single isomer, unassigned) [Compound 6]
8 nM	2750 nM	6310 nM	> 30200 nM	> 10000 nM			447 nM	~257 nM	COC(=O)[C@@H]1CCCN1C(=O)c1cc(C(C)Nc2cc(F)cc(F)c2)c2nc(N3CCOCC3)cnc2c1 (some centres unmarked) [Compound 273]
72 nM	1050 nM	8710 nM	21900 nM	13200 nM	> 513 nM	> 513 nM			O=C(NCCO)c1cc(N2CCCC2c2cc(F)cc(F)c2)c2nc(N3CCOCC3)cnc2c1 (single isomer, unassigned) [Compound 245]
501 nM	7410 nM	> 30200 nM	> 30200 nM	> 30200 nM	> 513 nM	> 513 nM			CN[C@H]1CCN(C(=O)c2cc(C(C)Oc3cc(F)c(F)c(F)c3)c3nc(N4CCOCC4)cnc3c2)C1 (single isomer, unassigned) [Compound 405a]
1320 nM	25700 nM	> 30200 nM	> 30200 nM	> 30200 nM	> 513 nM	> 513 nM			CC(Nc1ccc(F)c(F)c1)c1cc(C(=O)NCC(C)(C)O)cc2ncc(N3CCOCC3)nc12 (single isomer, unassigned) [Compound 348b]

Source: patent US10526316B2, “Quinoxaline and pyridopyrazine derivatives as PI3Kβ inhibitors” (Janssen Pharmaceutica NV, priority 2015, dated 2020)
